The source of these data is patent US12383479B2 (LG HOUSEHOLD & HEALTH CARE LTD., priority 2021, dated 2025).

≈ marks a conversion by molar mass, not a printed value.

For data set [1] the following is noted: 25° C.; cited from earlier work.
A short description of data set [2]: Experimental Example 2: solubility of palmitoylethanolamide with combined use of selected solvents and 2,3-butanediol. The format is physicochemical. The note with it: 1 wt % palmitoylethanolamide, 25° C. for 4 weeks, regardless of weight ratio.
The nature of data set [3]: Experimental Example 1: solubility of palmitoylethanolamide in each polyol solvent. The format is physicochemical. The note with it: 25° C. for 24 hours. From the text:
Polyols representatively used as solvents of cosmetics were chosen, which were propanediol, glycerin, […], 2,3-butanediol, pentylene glycol, dipropylene glycol, propylene glycol, butylene glycol, ethoxydiglycerol, and 1,2-hexanediol.

Where [4] appears, read: 0.5 wt % and 1 wt % palmitoylethanolamide.

Regarding `CCCCCCCCCCCCCCCC(=O)NCCO` [palmitoylethanolamide, N-(2-hydroxyethyl)hexadecanamide], in data set [1], the water solubility was 0.4431 µg/mL (≈ 1.48 µM). Also, in data set [2], the “solubility in 1,2-hexanediol combined with 2,3-butanediol” value is listed as “dissolved” and the “solubility in pentylene glycol combined with 2,3-butanediol” value is recorded as “dissolved”. In data set [3] (setting [4]), the “solubility in 1,2-hexanediol” value was “good solubility” and the “solubility in pentylene glycol” value is listed as “good solubility”. Further, the “solubility in the remaining polyols” value in data set [3] (propanediol, glycerin, ethanol, 2,3-butanediol, dipropylene glycol, propylene glycol, butylene glycol, ethoxydiglycerol, 0.5 and 1 wt %) is “precipitation”.
